From US20250289814A1, “COMPOUNDS AS PARP1 INHIBITIORS” (NINGBO NEWBAY TECHNOLOGY DEVELOPMENT CO., LTD., priority 2022, published 2025)
Where two headings read alike, the source gives them in different places.

How the values were obtained:
DLD1-BRCA2−/− cells = test: Cell proliferation assay in DLD1-BRCA2−/− cell lines (CellTiter-Glo, 7 days); assay type: cell-based
Protocol: BRCA2 (−/−) cells cultured in RPMI 1640+10% FBS were harvested and diluted to a density of 1×10^4 cells/mL and 2×10^4 cells/mL, respectively. Cells (40 μL/well) were seeded into 384-well cell culture plates. Plates were covered and incubated at 37° C., 5% CO2 overnight prior to the addition of test compounds or vehicle. The plates were then incubated at 37° C., 5% CO2 for 7 days. On day 8, the plates were removed from incubator and equilibrated at room temperature for 15 minutes. CellTiter-Glo (40 μL, at 1:1 to culture medium) is added into each well and the plates were placed at room temperature for 30 min. Luminescence was measured using an Envision plate reader. The resultant data were analysed as follows; where LC is culture medium without cells:
% inhibition values for different test compound concentrations were calculated and fitted to a four parameter logistic plot in order to determine the IC50 value using XLfit

Caco-2 cell monolayers = test: Caco2 (A-B/B-A) permeability; assay type: in vitro ADME; details: for Caco2 efflux ratio (ER): PappB-A/PappA-B; for Caco2 A-B apparent permeability (Papp): apical-to-basolateral; for Caco2 A-B apparent permeability (Papp) / Caco2 B-A apparent permeability (Papp): 5 μM, HBSS pH 7.4, 120 min, 37° C.; for Caco2 B-A apparent permeability (Papp): basolateral-to-apical
Protocol: (§1) The apical-to-basolateral (A-B) and basolateral-to-apical (B-A) transport of 5 μM test compounds in HBSS (10 mM HEPES, pH 7.4) was measured across Caco-2 cell monolayers (cells sourced from American Type Culture Collection, Manassas, Virgina). Duplicate incubations were performed at approximately 37° C. for 120 min, with functionality of the test system confirmed using 5 μM propranolol and digoxin as control compounds. Aliquots (50 μL) from both apical and basolateral wells were transferred into two fresh 96-well plates and quenched with acetonitrile solution containing analytical internal standards. Samples were vortexed mixed, centrifuged and a 100 μL aliquot of the resulting supernatant mixed with an equal volume of ultra-pure water prior to analysis by UPLC-MS/MS. The concentrations of test compound and control compounds in the incubation medium of donor and receiver compartments at the beginning and the end of the incubation period were used to calculate the apparent permeability (Papp) from A-B and B-A directions. The efflux ratio (ER) was expressed as PappB-A/PappA-B. The integrity of the cell monolayers after 2 hours incubation was confirmed using the marker reagent Lucifer yellow.

[1] = molecular target: Recombinant full length PARP2 (Homo sapiens (Human), UniProt Q9UGN5); test: FP assay PARP2 (fluorescence anisotropy probe displacement); assay type: binding; details: 60 nM PARP2, 8 nM fluorescent probe, 4 h, room temperature
Protocol: (§2) FP experiments were carried out at room temperature using no-binding black 384-well microplates. Recombinant full length PARP1 and PARP2 proteins produced in house were diluted to 20 nM and 60 nM, respectively, with assay buffer (50 mM Tris pH 8, 0.001% Triton X100, 10 mM MgCl2, and 150 mM NaCl) and incubated for 4 h with an equivalent volume of the 8 nM fluorescent probe diluted with assay buffer. Fluorescence anisotropy of the probe when bound to the proteins was measured in the presence of test compounds or solvent control and the effect on anisotropy determined. Polarization values were read using an Envision plate reader using excitation and emission wavelengths of 590 and 630 nm, respectively. All FP values are expressed as mP units. Inhibition ratio was calculated using readout (mP) following the equation as below: […]
(§3) % inhibition values for different test compound concentrations were calculated and fitted to a four parameter logistic plot in order to determine the IC50 value using XLfit.

[2] = molecular target: Recombinant full length PARP1 (Homo sapiens (Human), UniProt P09874); test: FP assay PARP1 (fluorescence anisotropy probe displacement); assay type: binding; details: 20 nM PARP1, 8 nM fluorescent probe, 4 h, room temperature
Protocol: as §2, §3

[3] = Caco2 (A-B/B-A) permeability; assay type: in vitro ADME; details: human; for efflux ratio at 120 min, 5 μM: Caco-2, pH 7.4, PappB-A/PappA-B, read-out: Caco2 efflux ratio (ER); for Papp A→B at 120 min, 5 μM: Caco-2, pH 7.4, apical-to-basolateral, read-out: Caco2 A-B apparent permeability (Papp); for Papp A→B at 120 min, 5 μM / Papp B→A at 120 min, 5 μM: HBSS pH 7.4, 120 min, 37° C.; for Papp B→A at 120 min, 5 μM: Caco-2, pH 7.4, basolateral-to-apical, read-out: Caco2 B-A apparent permeability (Papp)
Protocol: as §1

Chain of Recombinant full length PARP1 (P09874 whole entry): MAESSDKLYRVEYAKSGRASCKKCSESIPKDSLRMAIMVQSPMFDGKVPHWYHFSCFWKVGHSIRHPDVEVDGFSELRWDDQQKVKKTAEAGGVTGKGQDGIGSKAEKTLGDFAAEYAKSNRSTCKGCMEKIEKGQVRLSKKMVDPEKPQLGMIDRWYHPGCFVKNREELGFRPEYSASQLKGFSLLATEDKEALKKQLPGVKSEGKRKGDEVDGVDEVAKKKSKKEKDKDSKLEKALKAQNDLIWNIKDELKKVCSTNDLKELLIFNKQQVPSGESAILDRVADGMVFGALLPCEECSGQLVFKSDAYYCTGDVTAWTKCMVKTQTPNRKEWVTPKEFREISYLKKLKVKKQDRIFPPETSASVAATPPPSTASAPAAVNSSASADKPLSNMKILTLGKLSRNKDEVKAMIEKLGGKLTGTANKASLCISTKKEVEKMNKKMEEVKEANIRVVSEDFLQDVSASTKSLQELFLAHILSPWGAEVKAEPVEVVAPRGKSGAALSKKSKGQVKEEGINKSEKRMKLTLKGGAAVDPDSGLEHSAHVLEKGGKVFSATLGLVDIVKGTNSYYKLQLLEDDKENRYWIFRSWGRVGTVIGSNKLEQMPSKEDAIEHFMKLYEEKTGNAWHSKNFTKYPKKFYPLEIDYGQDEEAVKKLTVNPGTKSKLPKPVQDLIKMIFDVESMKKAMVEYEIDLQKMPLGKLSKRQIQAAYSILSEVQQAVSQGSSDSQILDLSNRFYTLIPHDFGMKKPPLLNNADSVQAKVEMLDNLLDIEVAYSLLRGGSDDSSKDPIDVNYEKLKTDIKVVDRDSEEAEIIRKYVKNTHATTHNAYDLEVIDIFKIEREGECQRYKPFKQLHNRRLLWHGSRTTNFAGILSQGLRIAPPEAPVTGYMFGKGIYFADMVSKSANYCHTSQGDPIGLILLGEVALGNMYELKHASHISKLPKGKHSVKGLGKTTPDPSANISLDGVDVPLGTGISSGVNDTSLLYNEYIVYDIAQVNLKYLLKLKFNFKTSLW
Chain of Recombinant full length PARP2 (Q9UGN5 whole entry): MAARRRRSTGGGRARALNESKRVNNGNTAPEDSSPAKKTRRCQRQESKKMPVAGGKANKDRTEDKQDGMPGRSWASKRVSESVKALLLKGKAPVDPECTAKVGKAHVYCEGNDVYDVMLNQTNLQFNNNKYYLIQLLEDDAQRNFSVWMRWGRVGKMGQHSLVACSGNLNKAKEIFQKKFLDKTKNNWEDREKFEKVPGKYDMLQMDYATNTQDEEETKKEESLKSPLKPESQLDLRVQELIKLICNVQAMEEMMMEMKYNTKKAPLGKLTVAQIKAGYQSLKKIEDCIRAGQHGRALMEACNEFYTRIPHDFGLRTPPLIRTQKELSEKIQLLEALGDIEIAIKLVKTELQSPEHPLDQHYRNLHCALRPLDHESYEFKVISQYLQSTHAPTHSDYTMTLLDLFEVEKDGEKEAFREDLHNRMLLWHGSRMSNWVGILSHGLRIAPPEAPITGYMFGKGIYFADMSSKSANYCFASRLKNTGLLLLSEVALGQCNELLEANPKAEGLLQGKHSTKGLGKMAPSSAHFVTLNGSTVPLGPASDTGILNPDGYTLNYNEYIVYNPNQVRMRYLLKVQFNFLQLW

Row | Compound | IC50 (DLD1-BRCA2−/− cells) [nM] | Caco2 efflux ratio (ER) (Caco-2 cell monolayers) | Caco2 A-B apparent permeability (Papp) (Caco-2 cell monolayers) | Caco2 B-A apparent permeability (Papp) (Caco-2 cell monolayers) | IC50 [1] [nM] | IC50 [2] [nM] | IC50 (DLD1-BRCA2−/− cells; Homo sapiens, DLD-1, 168 h) [nM] | efflux ratio at 120 min, 5 μM [3] | Papp A→B at 120 min, 5 μM [3] [×10⁻⁶ cm/s] | Papp B→A at 120 min, 5 μM [3] [×10⁻⁶ cm/s]
1 | CCc1cc2ncc([C@H](C)N3CC[C@@H](Oc4ccc(C(=O)NC)nc4)C3)cc2[nH]c1=O (single isomer, unassigned) [Compound 13, 5-(((R)-1-((enantiomer 1 or 2)-1-(7-ethyl-6-oxo-5,6-dihydro-1,5-naphthyridin-3-yl)ethyl)pyrrolidin-3-yl)oxy)-N-methylpicolinamide] | 29.5 | (ER = 7.91) | 3.85 10*−6 cm/s | 30.43 10*−6 cm/s |  |  |  |  |  | 
2 | CCc1nc2ccc([C@H](C)N3CC(Oc4ccc(C(=O)NC)nc4)C3)cc2[nH]c1=O (single isomer, unassigned) [Compound 52, (enantiomer 1 or 2)-5-((1-(1-(2-ethyl-3-oxo-3,4-dihydroquinoxalin-6-yl)ethyl)azetidin-3-yl)oxy)-N-methylpicolinamide] |  |  |  |  | > 10000 | 35.2 | 18.9 | 2.09 | 14.9 | 31.2
3 | CCc1nc2ccc([C@H](C)N3CC(Oc4ccc(C(=O)NC)nc4F)C3)cc2[nH]c1=O (single isomer, unassigned) [Compound 57, (enantiomer 1 or 2)-5-((1-(1-(2-ethyl-3-oxo-3,4-dihydroquinoxalin-6-yl)ethyl)azetidin-3-yl)oxy)-6-fluoro-N-methylpicolinamide] | 9.1 | (ER = 2.38) | 12.25 10*−6 cm/s | 29.21 10*−6 cm/s |  | 7.3 |  |  |  | 
4 | CCc1cc2ncc([C@@H](C)N3CC(Oc4ccc(C(=O)NC)nc4F)C3)cc2[nH]c1=O (single isomer, unassigned; enantiomer 1) [Compound 45, (enantiomer 1)-5-((1-(1-(7-ethyl-6-oxo-5,6-dihydro-1,5-naphthyridin-3-yl)ethyl)azetidin-3-yl)oxy)-6-fluoro-N-methylpicolinamide] | 69.3 |  |  |  | 365 | 6.4 |  | 10.5 | 4.18 | 43.9
5 | CCc1cc2cnc([C@H](C)N3CC(Oc4ccc(C(=O)NC)nc4F)C3)cc2[nH]c1=O (single isomer, unassigned; enantiomer 1) [Compound 49, (enantiomer 1)-5-((1-(1-(3-ethyl-2-oxo-1,2-dihydro-1,6-naphthyridin-7-yl)ethyl)azetidin-3-yl)oxy)-6-fluoro-N-methylpicolinamide] |  |  |  |  | > 10000 | 14.5 | 5.7 | 8.64 | 3.46 | 29.9
6 | CCc1cc2ncc(CN3CC(Oc4cnc(C(=O)NC)c(F)c4)C3)cc2[nH]c1=O [Compound 2, 5-((1-((7-ethyl-6-oxo-5,6-dihydro-1,5-naphthyridin-3-yl)methyl)azetidin-3-yl)oxy)-3-fluoro-N-methylpicolinamide] |  |  |  |  | > 10000 | 7.7 | 288 | 19.2 | 1.47 | 28.3
7 | CNC(=O)c1ccc(OC2CN(Cc3cnc4cc(C5CC5)c(=O)[nH]c4c3)C2)cn1 [Compound 6, 5-((1-((7-cyclopropyl-6-oxo-5,6-dihydro-1,5-naphthyridin-3-yl)methyl)azetidin-3-yl)oxy)-N-methylpicolinamide] |  |  |  |  | > 10000 | 7 | 62.1 | 9.29 | 3.32 | 30.8
8 | CCc1cc2ncc(CN3C[C@@H](F)[C@@H](Oc4ccc(C(=O)NC)nc4)C3)cc2[nH]c1=O [Compound 8, 5-(((3S, 4R)-1-((7-ethyl-6-oxo-5,6-dihydro-1,5-naphthyridin-3-yl)methyl)-4-fluoropyrrolidin-3-yl)oxy)-N-methylpicolinamide] |  |  |  |  | > 10000 | 3.8 | 51.1 | 11.8 | 2.45 | 28.8
9 | CCc1cc2ncc(CN3CCC(Nc4ccc(C(=O)NC)nc4)C3)cc2[nH]c1=O (stereo not drawn) [Compound 10, 5-((1-((7-ethyl-6-oxo-5,6-dihydro-1,5-naphthyridin-3-yl)methyl)pyrrolidin-3-yl)amino)-N-methylpicolinamide] |  |  |  |  | > 10000 | 3.1 | 11.5 | 39.1 | 0.57 | 22.4
10 | CCc1cc2ncc(CN3CC[C@@H](Oc4ccc(C(=O)NC)nc4)C3)cc2[nH]c1=O [Compound 11, (R)-5-((1-((7-ethyl-6-oxo-5,6-dihydro-1,5-naphthyridin-3-yl)methyl)pyrrolidin-3-yl)oxy)-N-methylpicolinamide] |  |  |  |  | > 10000 | 4.8 | 6 | 9.69 | 4.13 | 40
11 | CCc1nc2ccc(C(C)N3CC(Oc4ccc(C(=O)NC)nc4)C3)cc2[nH]c1=O (stereo not drawn) [Compound 20, 5-((1-(1-(2-ethyl-3-oxo-3,4-dihydroquinoxalin-6-yl)ethyl)azetidin-3-yl)oxy)-N-methylpicolinamide] |  |  |  |  | > 10000 | 14.8 | 38.2 | 2.16 | 11.8 | 25.4
12 | CCc1nc2ccc(CN3CC[C@@H](Oc4ccc(C(=O)NC)nc4)C3)cc2[nH]c1=O [Compound 28, (R)-5-((1-((2-ethyl-3-oxo-3,4-dihydroquinoxalin-6-yl)methyl)pyrrolidin-3-yl)oxy)-N-methylpicolinamide] |  |  |  |  | > 10000 | 9.3 | 57.6 | 5.03 | 6.32 | 31.8
13 | CCc1cc2cnc(C(C)N3CC(Oc4ccc(C(=O)NC)nc4)C3)cc2[nH]c1=O (stereo not drawn) [Compound 51, 5-((1-(1-(3-ethyl-2-oxo-1,2-dihydro-1,6-naphthyridin-7-yl)ethyl)azetidin-3-yl)oxy)-N-methylpicolinamide] |  |  |  |  | 9610 | 3.8 | 15.9 | 6.4 | 5.4 | 34.6
14 | CCc1cc2ncc(CN3CC[C@H](Oc4ccc(C(=O)NC)nc4)C3)cc2[nH]c1=O [Compound 58, (S)-5-((1-((7-ethyl-6-oxo-5,6-dihydro-1,5-naphthyridin-3-yl)methyl)pyrrolidin-3-yl)oxy)-N-methylpicolinamide] |  |  |  |  | > 10000 | 44.7 | > 1000 |  |  | 
15 | CCc1cc2cnc(CN3CC[C@@H](Oc4ccc(C(=O)NC)nc4)C3)cc2[nH]c1=O [Compound 63, (R)-5-((1-((3-ethyl-2-oxo-1,2-dihydro-1,6-naphthyridin-7-yl)methyl)pyrrolidin-3-yl)oxy)-N-methylpicolinamide] |  |  |  |  | > 10000 | 7.03 | 5.4 | 7.96 | 5.35 | 42.5
